Usually melting point stands for the temperature of the solid-liquid transition.

For the compound `COc1ccccc1Nc1nc(C)c(C(=O)NCc2ccccc2)o1` [Compound 221, 2-(2-methoxy-phenylamino)-4-methyl-oxazole-5-carboxylic acid benzylamide], the melting point was 125.9 to 130.2 °C.
As to `COc1ccc(CNC(=O)c2oc(Nc3ccccc3OC)nc2C)c(OC)c1` [Compound 222, 2-(2-methoxy-phenylamino)-4-methyl-oxazole-5-carboxylic acid 2,4-dimethoxy-benzylamide], the melting point fell in the range of 68.7 to 82.4 °C.
The figure for `COc1ccccc1Nc1nc(C)c(C(=O)NCc2ccc(F)c(C(F)(F)F)c2)o1` [Compound 223, 2-(2-methoxy-phenylamino)-4-methyl-oxazole-5-carboxylic acid 4-fluoro-3-trifluoromethyl-benzylamide] is 71.6 to 84.3 °C; for `COc1ccccc1Nc1ncc(C(=O)NCc2ccccc2)[nH]1` [Compound 224, 2-(2-methoxy-phenylamino)-3H-imidazole-4-carboxylic acid benzylamide] it is 212.5 to 213.9 °C.
The compound `COc1ccc(CNC(=O)c2cnc(Nc3ccccc3OC)[nH]2)c(OC)c1` [Compound 225, 2-(2-methoxy-phenylamino)-3H-imidazole-4-carboxylic acid 2,4-dimethoxy-benzylamide] showed a melting point of 134.1 to 136.2 °C.
With `COc1ccccc1Nc1ncc(C(=O)NCc2ccc(F)c(C(F)(F)F)c2)[nH]1` [Compound 226, 2-(2-methoxy-phenylamino)-3H-imidazole-4-carboxylic acid 4-fluoro-3-trifluoromethyl-benzylamide] the figure was 227.9 to 230 °C.

Source of the values: patent publication US20080125432A1 (Devgen NV, priority 2004, published 2008).
